Several values for one entry are separate records, joined by “and”; a condition that tells them apart may be missing. Identical values can stand only once.
How the values were obtained:
RAW 264.7 cells = assay: MTS cytotoxicity assay in RAW 264.7 cells; format: cell-based; settings: 800 μM peptide
Excerpt: (§1) The 20 peptides with the top scores were selected and entrusted to Nanjing GenScript Biotechnology Co., Ltd., with synthetic sample purity > 95%. The process was as follows: Select the appropriate resin, pretreat it with solvent, remove the resin protective group, and expose the active site. The first protective amino acid is activated and coupled to the resin, and the amino protecting group of the amino acid is removed after washing. Repeat the “Activation–Conjugation–Deprotection” step and gradually add amino acids to lengthen the peptide chain. The peptide is cleaved from the resin with reagents such as TFA while the side-chain guard group is removed. Peptides are precipitated, washed, purified by HPLC, and identified by mass spectrometry. RAW 264.7 cells were purchased from Peking Union Medical College. The cytotoxicity of 20 candidate peptides towards RAW 264.7 cells is evaluated in an MTS assay (Promega, Madison, WI, USA), adapted from reference with modifications. RAW 264.7 cells are maintained in Dulbecco’s Modified Eagle Medium (DMEM, C11995500BT, Gibco, Grand Island, NY, USA) supplemented with 10% fetal bovine serum (F8687, Merck, Darmstadt, Germany) and 1% penicillin-streptomycin (C0222, Beyotime, Shanghai, China) at 37 °C under 5% CO2. […] NO production is measured using a NO detection kit (G2930, Promega) following the manufacturer’s protocol.

[1] = system: LPS-induced RAW 264.7 cells; assay: Mouse cytokine array of LPS-induced RAW 264.7 cell supernatants; format: cell-based; settings: T14 200 μM 6 h pretreatment, LPS 24 h; vs LPS group
Experimental: The expression levels of 40 cytokines and chemokines in RAW 264.7 cell culture supernatants were analyzed using the Proteome Profiler™ Mouse Cytokine Array Panel A (ARY006, R&D Systems, Minneapolis, MN, USA) following the manufacturer’s protocol. Supernatants from treated groups were collected, and 300 μL per sample was used for each array. All reagents were equilibrated to room temperature (26 ± 0.5 °C) prior to use. The array membrane was blocked with blocking buffer for 2 h at room temperature. During blocking, the detection antibody cocktail was mixed with the cell supernatant and incubated at room temperature for 1 h. The mixture was then transferred to the blocked membrane and incubated overnight at 4 °C. Post-incubation, the membrane was washed three times with wash buffer (≥10 min per wash). Horseradish peroxidase-conjugated streptavidin was added, and the membrane was incubated for 2 h at room temperature. After thorough washing, a chemiluminescent substrate was applied, and signals were captured using a chemiluminescence imaging system. The array images were analyzed using ImageJ software to quantify the integrated optical density.

[2] = system: LPS-induced RAW 264.7 cells; assay: NO production in LPS-induced RAW 264.7 cells; format: cell-based; settings: 200 μM peptide, 2 h pretreatment, then LPS (1 μg/mL) 24 h; vs LPS-treated group
Excerpt: as §1

[3] = system: ET-1 in LPS-induced HUVECs; assay: ET-1 ELISA in LPS-induced HUVECs; format: cell-based, human; settings: LPS 10 μg/mL 24 h; for ET-1 inhibition rate: (LPS − peptide)/(LPS − control)
Experimental: (§2) HUVEC cell were purchased from Peking Union Medical College. HUVECS were cultured according to protocols provided by the Peking Union Medical College Cell Bank. Cells were maintained in DMEM supplemented with 10% fetal bovine serum, 1% penicillin-streptomycin, 1% GlutaMAX™ (25030149, Gibco), 1% non-essential amino acids (N1250, Solarbio), and 2% sodium pyruvate (11360070, Gibco) at 37 °C under 5% CO2. Cells in the logarithmic growth phase were seeded into 24-well plates at 2 × 10^5 CFU/mL and incubated overnight. After supernatant removal, the cells were pretreated with varying concentrations of T14 peptide (50, 100, 200, 400 μM) for 6 h, followed by co-stimulation with LPS (10 μg/mL) for 24 h. Cell culture supernatants were collected, and the expression levels of ET-1 and ICAM-1 were quantified using ELISA kits (E-EL-H0064 for ET-1, E-EL-H6114 for ICAM-1; Procell, Wuhan, China) according to the manufacturer’s instructions. The inhibition rate was calculated using the following formula:Inhibition rate (%) = (LPS − peptide)/(LPS − control) × 100%

[4] = system: NF-κB p65 in CAP-induced HaCaT cells; assay: Western blot of NF-κB p65 in CAP-induced HaCaT cells; format: cell-based; settings: varying concentrations of T14 6 h pretreatment, CAP 24 h, total cellular protein
Experimental: Adapted from a previous study with modifications, HaCaT cells were seeded into 6-well plates at a density of 2.0 × 10^5 CFU/mL and cultured for 8–12 h. Cells were pretreated with varying concentrations of T14 for 6 h, followed by co-stimulation with CAP for 24 h. After washing with Dulbecco’s phosphate-buffered saline, the cells were lysed on ice for 1 h using RIPA Lysis Buffer (R0010, Solarbio). Lysates were centrifuged at 12,000× g for 30 min at 4 °C, and the supernatants were collected. Protein concentrations were quantified using a BCA assay and normalized. Loading buffer (P1016, Solarbio) was added at a 1:3 ratio, and the samples were denatured at 95 °C for 5 min using a heat block before being stored at −20 °C.
Proteins (10 μL/lane) were resolved via sodium dodecyl sulfate-polyacrylamide gel electrophoresis and transferred onto polyvinylidene fluoride membranes. Membranes were blocked with 5% skim milk in Tris-buffered saline containing 0.1% Tween-20 for 2 h at room temperature. Primary antibodies against NF-κB p65 (8242T, Cell Signaling Technology, Danvers, MA, USA) and GAPDH (CL594-6004, Abclonal, Wuhan, China) were diluted according to the manufacturer’s guidelines and incubated overnight at 4 °C. […] Band intensities were quantified using ImageJ software.

[5] = system: TRPV1-mediated Ca2+ influx in CAP-induced HaCaT cells; assay: Capsaicin-induced Ca2+ influx in HaCaT cells (Fluo-4AM fluorescence); format: cell-based; settings: 200 μM peptide, 24 h pretreatment, CAP-stimulated HaCaT cells
Experimental: HaCaT cells were purchased from the Kunming Cell Bank, Chinese Academy of Sciences. Adapted from a previous study with modifications, HaCaT cells were cultured in DMEM supplemented with 10% fetal bovine serum and 1% penicillin-streptomycin at 37 °C under 5% CO2. Cells in the logarithmic growth phase were harvested and adjusted to a density of 1 × 10^5 CFU/mL. Cell suspensions (100 μL/well) were seeded into 96-well plates and incubated for 8–12 h. After removing the supernatant, the cells were treated with T10, T14, or T18 peptide solutions (200 μM) for 2, 6, 12, or 24 h, followed by stimulation with 100 μL CAP (IC0060, Solarbio) per well. Untreated cells served as blank controls. Intracellular Ca^2+ levels were quantified using a calcium ion assay kit (S1061S; Beyotime) according to the manufacturer’s protocol. Fluorescence images were captured using an inverted fluorescence microscope and analyzed using ImageJ software (NIH, Bethesda, MD, USA) to calculate the average fluorescence intensity.

[6] = system: ICAM-1 in LPS-induced HUVECs; assay: ICAM-1 ELISA in LPS-induced HUVECs; format: cell-based, human; settings: LPS 10 μg/mL 24 h; for ICAM-1 inhibition rate: (LPS − peptide)/(LPS − control); for ICAM-1 level: control 0.43, LPS 0.57 pg/mL
Experimental: as §2

Substance	cell viability (RAW 264.7 cells)	TIMP-1 expression [1]	expression of G-CSF, GM-CSF, ICAM-1, IL-3, IL-6, IL-23 and TNF-α [1]	expression of M-CSF, IL-1α, IL-7, IL-13, IL-12P70, IL-16, IL-17, IL-27, CCL3, CCL4, CXCL2 and CCL5 [1]	Inhibitory effect on NO production [2]	ET-1 inhibition rate ([3]; 100 μM T14, 6 h pretreatment) [%]	ET-1 inhibition rate ([3]; 400 μM T14, 6 h pretreatment) [%]	ET-1 level ([3]; 400 μM T14, 6 h pretreatment, control 2.05, LPS 2.7 pg/mL) [pg/mL]	p65 expression [4]	inhibition rate of Ca2+ fluorescence intensity [5] [%]	ICAM-1 inhibition rate ([6]; 50 μM T14, 6 h pretreatment) [%]	ICAM-1 level ([6]; 50 μM T14, 6 h pretreatment) [pg/mL]	ICAM-1 inhibition rate ([6]; 400 μM T14, 6 h pretreatment)	ICAM-1 level ([6]; 400 μM T14, 6 h pretreatment) [pg/mL]
IFDL [T5, hit peptide from T. fasciatus skin hydrolysate, made by solid-phase synthesis]	proliferative effects													
LDIF [T14, hit peptide from T. fasciatus skin hydrolysate, made by solid-phase synthesis]		markedly upregulated	significantly downregulated	moderate downward trend	significant inhibition	24.47	75.0	2.2	markedly reduced p65 expression	73.1	20.65	0.54	49.0% and 48.96%	0.50
LFIL [T9, hit peptide from T. fasciatus skin hydrolysate, made by solid-phase synthesis]	proliferative effects													

From article PMC12113342, “Identification of TRPV1-Inhibitory Peptides from Takifugu fasciatus Skin Hydrolysate and Their Skin-Soothing Mechanisms” (Marine Drugs, 2025)
